Experimental data taken from article PMC10009755, “Discovery and Characterization of BAY-805, a Potent and Selective Inhibitor of Ubiquitin-Specific Protease USP21” (Journal of Medicinal Chemistry, 2023).
Like-named read-outs stand apart in the source and are kept apart here. Values belong to the compound of their own block, whether it stands above or below them.

Experiments:
USP2 [1] = biological target: T1, USP2 (Homo sapiens, UniProt O75604); experiment: Thermal shift assay (TSA); assay type: binding; conditions: 100 μM compound
T1 construct: His tag
T1 sequence (O75604 259-605): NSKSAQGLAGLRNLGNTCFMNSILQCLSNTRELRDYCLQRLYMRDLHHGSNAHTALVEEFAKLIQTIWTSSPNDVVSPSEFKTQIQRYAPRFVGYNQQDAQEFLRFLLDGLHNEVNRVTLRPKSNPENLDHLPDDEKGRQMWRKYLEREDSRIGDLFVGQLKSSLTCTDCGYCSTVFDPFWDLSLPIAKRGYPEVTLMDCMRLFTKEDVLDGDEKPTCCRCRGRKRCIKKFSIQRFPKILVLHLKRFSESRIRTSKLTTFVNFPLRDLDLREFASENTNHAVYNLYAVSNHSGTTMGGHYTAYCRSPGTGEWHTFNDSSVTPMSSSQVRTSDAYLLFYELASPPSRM

USP21 [2] = biological target: T2, USP21 (Homo sapiens, UniProt Q9UK80); experiment: Thermal shift assay (TSA); assay type: binding; parameters: purchased Ubiquigent (DUBprofiler service); conditions: 100 μM compound
T2 sequence (Q9UK80 1-565): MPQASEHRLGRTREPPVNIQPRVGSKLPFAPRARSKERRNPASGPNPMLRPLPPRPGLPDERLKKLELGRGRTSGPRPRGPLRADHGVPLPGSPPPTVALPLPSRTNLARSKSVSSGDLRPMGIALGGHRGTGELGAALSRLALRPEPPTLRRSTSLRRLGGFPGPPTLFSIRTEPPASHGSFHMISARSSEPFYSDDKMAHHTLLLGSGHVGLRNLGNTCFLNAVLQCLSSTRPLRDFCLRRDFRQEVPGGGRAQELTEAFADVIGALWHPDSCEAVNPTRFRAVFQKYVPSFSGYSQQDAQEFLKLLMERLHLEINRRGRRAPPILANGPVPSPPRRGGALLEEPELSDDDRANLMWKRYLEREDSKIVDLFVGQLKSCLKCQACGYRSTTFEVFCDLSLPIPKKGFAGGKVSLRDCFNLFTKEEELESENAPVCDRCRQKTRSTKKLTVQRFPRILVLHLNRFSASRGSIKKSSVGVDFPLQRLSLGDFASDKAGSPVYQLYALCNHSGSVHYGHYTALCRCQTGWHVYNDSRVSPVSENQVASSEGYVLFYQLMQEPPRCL
Method: Experiments were carried out with the QuantStudio7 Flex Real-Time PCR system (Thermo Fisher Scientific) in a 384-well plate format with 5 μL of reaction volume. Melting curves were obtained at an USP21 protein concentration of 3.8 μM and 5xSYPRO Orange (Invitrogen) using a buffer containing 20 mM Tris, pH 7.5; 150 mM NaCl; 10% glycerol; and 1.0 mM TCEP. […] For binding experiments, compounds were added from 10 mM stock solution to a final concentration of 100 μM. As a control, 1% DMSO was used. Scans were measured from 25 to 95 °C at a scanning rate of 4 °C/min. All TSA data were analyzed using a Genedata Assay Analyzer.

[3] = tested on: panel of 10 individual USPs; experiment: SGC USP selectivity screen, whole panel; assay type: biochemical; conditions: 10 and 50 μM
USP21 [4] = biological target: T2, USP21
USP2 [5] = biological target: T1, USP2; experiment: hUSP2 Ub-rhodamine 110 assay; assay type: biochemical; conditions: arithmetic means of multiple measurements; read-out: IC50 hUSP2 Ub-Rhod
Method: The final assay volume was 6 μL.

USP7 = biological target: T3, USP7 (Homo sapiens, UniProt Q93009); experiment: Thermal shift assay (TSA); assay type: binding; conditions: 100 μM compound
T3 construct: purchased Ubiquigent (DUBprofiler service)

log D measurement (HPLC) = assay type: physicochemical; conditions: reverse-phase HPLC, pH 7.5, pH 7.5, HPLC method; read-out: logD7.5
Method: log D values at pH 7.5 were recorded using an indirect method for determining hydrophobicity constants by reverse-phase HPLC. A series of compounds with well-known log D values were used for calibration. Test compounds were injected into the same HPLC system. The lipophilicity of compounds was then assessed by comparison to the calibration curve.

USP21 [6] = biological target: T4, USP21 (Homo sapiens, UniProt Q9UK80); experiment: SPR binding; conditions: equilibrium binding, 15 °C
T4 construct: made in house; host or cells: E. coli BL21(DE3)

USP21 [7] = biological target: T2, USP21; experiment: Ubiquitin aminoluciferin (Ub-AML) assay; assay type: biochemical; parameters: […]; ZZ tag; made in house
Method: The final assay volume was 8 μL. […] The reaction was stopped with 2 μL of 200 μM PR619. Then, 2 μL of luciferin detection reagent (Promega V8920/1) was used to detect luciferin at a final concentration of 0.5-fold. For the luminescence detection, 1536-well plates (Greiner, white) were measured on the ViewLux at 120 s exposure time.

USP21 [8] = biological target: T2, USP21; remark: listed apart in the source
Dopamine D1 = Dopamine D1 (Homo sapiens, UniProt P21728); experiment: Eurofins Panlabs safety screen; assay type: binding
Dopamine D2L = Dopamine D2L (Homo sapiens, UniProt P14416); experiment: Eurofins Panlabs safety screen; assay type: binding
Opiate κ (OP2, KOP) = biological target: T5, Opiate κ (OP2, KOP) (Homo sapiens, UniProt P41145); experiment: Eurofins Panlabs safety screen; assay type: binding
T5 construct: Eurofins Panlabs

[9] = biological target: T6, Cholinesterase, Acetyl, ACES (Homo sapiens, UniProt P22303); experiment: Eurofins Panlabs safety screen; assay type: biochemical
T6 construct: Eurofins Panlabs

Adrenergic α2C = biological target: T7, Adrenergic α2C (Homo sapiens, UniProt P18825); experiment: Eurofins Panlabs safety screen; assay type: binding
T7 construct: Eurofins Panlabs

Adrenergic α2B = biological target: T8, Adrenergic α2B (Homo sapiens, UniProt P18089); experiment: Eurofins Panlabs safety screen; assay type: binding
T8 construct: Eurofins Panlabs

Dopamine D2S = Dopamine D2S (Homo sapiens, UniProt P14416); experiment: Eurofins Panlabs safety screen; assay type: binding
Cannabinoid CB2 = Cannabinoid CB2 (Homo sapiens, UniProt P34972); experiment: Eurofins Panlabs safety screen; assay type: binding
Adrenergic α1A = biological target: T9, Adrenergic α1A (Homo sapiens, UniProt P35348); experiment: Eurofins Panlabs safety screen; assay type: binding
T9 construct: Eurofins Panlabs

[10] = biological target: T10, Serotonin (5-Hydroxytryptamine) 5-HT2B (Homo sapiens, UniProt P41595); experiment: Eurofins Panlabs safety screen; assay type: binding
T10 construct: Eurofins Panlabs

Cannabinoid CB1 = Cannabinoid CB1 (Homo sapiens, UniProt P21554); experiment: Eurofins Panlabs safety screen; assay type: binding
[11] = biological target: T11, Serotonin (5-Hydroxytryptamine) 5-HT1A (Homo sapiens, UniProt P08908); experiment: Eurofins Panlabs safety screen; assay type: binding
T11 construct: Eurofins Panlabs

Dopamine D3 = Dopamine D3 (Homo sapiens, UniProt P35462); experiment: Eurofins Panlabs safety screen; assay type: binding
[12] = biological target: T12, Serotonin (5-Hydroxytryptamine) 5-HT2C (Homo sapiens, UniProt P28335); experiment: Eurofins Panlabs safety screen; assay type: binding
T12 construct: Eurofins Panlabs

Muscarinic M4 = biological target: T13, Muscarinic M4 (Homo sapiens, UniProt P08173); experiment: Eurofins Panlabs safety screen; assay type: binding
T13 construct: Eurofins Panlabs

Muscarinic M3 = biological target: T14, Muscarinic M3 (Homo sapiens, UniProt P20309); experiment: Eurofins Panlabs safety screen; assay type: binding
T14 construct: Eurofins Panlabs

[13] = biological target: T15, Nicotinic Acetylcholine α3β4 (Homo sapiens, UniProt P30926+P32297); experiment: Eurofins Panlabs safety screen; assay type: binding
T15 construct: Eurofins Panlabs

Opiate δ1 (OP1, DOP) = biological target: T16, Opiate δ1 (OP1, DOP) (Homo sapiens, UniProt P41143); experiment: Eurofins Panlabs safety screen; assay type: binding
T16 construct: Eurofins Panlabs

[14] = biological target: T17, Serotonin (5-Hydroxytryptamine) 5-HT2A (Homo sapiens, UniProt P28223); experiment: Eurofins Panlabs safety screen; assay type: binding
T17 construct: Eurofins Panlabs

Fms(h) = biological target: T18, Fms(h) (Homo sapiens, UniProt P07333); experiment: Eurofins kinase panel; assay type: biochemical
T18 construct: purchased Eurofins (formerly Millipore/Upstate) KinaseProfiler

Androgen (Testosterone) = Androgen (Testosterone) (Homo sapiens, UniProt P10275); experiment: Eurofins Panlabs safety screen; assay type: binding
Muscarinic M1 = biological target: T19, Muscarinic M1 (Homo sapiens, UniProt P11229); experiment: Eurofins Panlabs safety screen; assay type: binding
T19 construct: Eurofins Panlabs

Opiate μ (OP3, MOP) = biological target: T20, Opiate μ (OP3, MOP) (Homo sapiens, UniProt P35372); experiment: Eurofins Panlabs safety screen; assay type: binding
T20 construct: Eurofins Panlabs

Adrenergic α2A = biological target: T21, Adrenergic α2A (Homo sapiens, UniProt P08913); experiment: Eurofins Panlabs safety screen; assay type: binding
T21 construct: Eurofins Panlabs

Muscarinic M2 = biological target: T22, Muscarinic M2 (Homo sapiens, UniProt P08172); experiment: Eurofins Panlabs safety screen; assay type: binding
T22 construct: Eurofins Panlabs

PRP4(h) = biological target: T23, PRP4(h) (Homo sapiens, UniProt Q13523); experiment: Eurofins kinase panel; assay type: biochemical
T23 construct: purchased Eurofins (formerly Millipore/Upstate) KinaseProfiler

T6 sequence (P22303 32-614): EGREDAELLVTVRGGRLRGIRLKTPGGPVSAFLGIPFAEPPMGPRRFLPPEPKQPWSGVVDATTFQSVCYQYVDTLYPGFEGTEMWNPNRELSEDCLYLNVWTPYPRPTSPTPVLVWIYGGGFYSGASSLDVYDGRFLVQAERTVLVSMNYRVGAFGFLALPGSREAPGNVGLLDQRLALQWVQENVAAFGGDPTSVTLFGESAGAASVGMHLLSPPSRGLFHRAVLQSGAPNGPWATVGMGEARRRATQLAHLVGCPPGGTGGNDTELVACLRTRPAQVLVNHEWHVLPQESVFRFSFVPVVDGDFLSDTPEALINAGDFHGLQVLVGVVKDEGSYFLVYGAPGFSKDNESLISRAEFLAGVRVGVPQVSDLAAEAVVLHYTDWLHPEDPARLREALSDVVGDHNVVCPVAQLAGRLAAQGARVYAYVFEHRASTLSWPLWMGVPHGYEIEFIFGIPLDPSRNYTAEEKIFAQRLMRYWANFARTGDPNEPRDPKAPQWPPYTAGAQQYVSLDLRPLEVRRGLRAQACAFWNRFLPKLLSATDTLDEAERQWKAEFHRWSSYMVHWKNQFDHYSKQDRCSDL
Cannabinoid CB1, sequence (P21554 whole entry): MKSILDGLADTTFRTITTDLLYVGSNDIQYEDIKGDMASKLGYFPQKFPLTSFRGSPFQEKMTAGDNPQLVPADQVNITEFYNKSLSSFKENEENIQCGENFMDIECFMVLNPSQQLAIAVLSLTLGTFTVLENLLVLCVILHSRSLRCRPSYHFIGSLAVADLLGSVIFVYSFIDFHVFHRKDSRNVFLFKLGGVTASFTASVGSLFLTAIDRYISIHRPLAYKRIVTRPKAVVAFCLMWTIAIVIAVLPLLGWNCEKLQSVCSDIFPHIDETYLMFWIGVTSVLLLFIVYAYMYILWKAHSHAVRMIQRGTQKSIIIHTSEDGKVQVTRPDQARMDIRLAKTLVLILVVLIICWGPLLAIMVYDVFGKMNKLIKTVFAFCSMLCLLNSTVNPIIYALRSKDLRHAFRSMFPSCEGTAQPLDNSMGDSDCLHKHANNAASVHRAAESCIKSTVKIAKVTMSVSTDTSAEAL
T12 sequence (P28335 33-458): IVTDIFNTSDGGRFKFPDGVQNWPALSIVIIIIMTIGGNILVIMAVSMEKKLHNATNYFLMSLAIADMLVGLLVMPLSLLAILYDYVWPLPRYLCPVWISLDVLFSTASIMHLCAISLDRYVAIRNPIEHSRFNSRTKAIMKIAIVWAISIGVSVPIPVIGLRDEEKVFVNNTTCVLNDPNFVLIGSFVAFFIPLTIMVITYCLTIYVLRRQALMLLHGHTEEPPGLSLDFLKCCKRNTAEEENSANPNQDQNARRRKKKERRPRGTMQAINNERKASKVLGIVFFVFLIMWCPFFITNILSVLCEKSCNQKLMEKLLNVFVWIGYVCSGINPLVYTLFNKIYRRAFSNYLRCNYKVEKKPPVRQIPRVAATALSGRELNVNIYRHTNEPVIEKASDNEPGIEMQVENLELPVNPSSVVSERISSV
T13 sequence (P08173 whole entry): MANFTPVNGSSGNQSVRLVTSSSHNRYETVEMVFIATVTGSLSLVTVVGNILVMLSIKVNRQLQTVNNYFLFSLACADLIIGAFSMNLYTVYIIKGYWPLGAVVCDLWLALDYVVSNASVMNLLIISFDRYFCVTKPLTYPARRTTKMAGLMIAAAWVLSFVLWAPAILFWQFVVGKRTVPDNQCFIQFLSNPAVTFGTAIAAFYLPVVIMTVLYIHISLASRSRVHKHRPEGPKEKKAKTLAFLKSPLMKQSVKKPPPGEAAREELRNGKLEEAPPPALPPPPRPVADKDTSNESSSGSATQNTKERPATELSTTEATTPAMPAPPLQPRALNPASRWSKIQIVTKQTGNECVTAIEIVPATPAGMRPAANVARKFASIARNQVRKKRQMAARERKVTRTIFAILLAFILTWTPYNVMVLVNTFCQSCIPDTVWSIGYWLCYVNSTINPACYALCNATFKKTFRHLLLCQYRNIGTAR
T21 sequence (P08913 whole entry): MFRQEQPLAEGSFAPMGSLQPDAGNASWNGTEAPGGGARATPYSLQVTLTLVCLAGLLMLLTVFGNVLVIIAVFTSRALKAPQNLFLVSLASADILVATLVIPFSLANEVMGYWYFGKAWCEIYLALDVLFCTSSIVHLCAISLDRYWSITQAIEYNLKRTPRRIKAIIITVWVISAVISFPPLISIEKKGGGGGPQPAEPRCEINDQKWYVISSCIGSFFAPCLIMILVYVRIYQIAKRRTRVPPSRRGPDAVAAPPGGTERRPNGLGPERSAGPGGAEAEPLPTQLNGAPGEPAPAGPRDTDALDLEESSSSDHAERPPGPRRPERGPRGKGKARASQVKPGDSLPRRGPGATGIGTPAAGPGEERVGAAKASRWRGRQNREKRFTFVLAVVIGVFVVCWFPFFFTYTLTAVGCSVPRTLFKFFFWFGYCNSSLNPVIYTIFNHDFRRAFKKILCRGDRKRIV
Dopamine D2S, sequence (P14416 1-414 isoform P14416-2): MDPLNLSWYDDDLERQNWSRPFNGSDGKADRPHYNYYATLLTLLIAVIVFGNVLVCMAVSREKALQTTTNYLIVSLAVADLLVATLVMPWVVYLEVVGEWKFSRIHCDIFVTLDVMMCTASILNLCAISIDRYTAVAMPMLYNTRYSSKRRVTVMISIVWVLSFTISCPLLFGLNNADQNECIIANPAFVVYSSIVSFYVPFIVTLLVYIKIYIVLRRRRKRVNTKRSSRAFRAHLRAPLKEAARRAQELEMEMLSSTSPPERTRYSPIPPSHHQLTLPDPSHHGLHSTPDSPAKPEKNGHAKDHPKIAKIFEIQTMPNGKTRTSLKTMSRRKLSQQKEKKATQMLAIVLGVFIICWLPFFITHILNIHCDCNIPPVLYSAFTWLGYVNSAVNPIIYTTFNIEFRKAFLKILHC
T22 sequence (P08172 whole entry): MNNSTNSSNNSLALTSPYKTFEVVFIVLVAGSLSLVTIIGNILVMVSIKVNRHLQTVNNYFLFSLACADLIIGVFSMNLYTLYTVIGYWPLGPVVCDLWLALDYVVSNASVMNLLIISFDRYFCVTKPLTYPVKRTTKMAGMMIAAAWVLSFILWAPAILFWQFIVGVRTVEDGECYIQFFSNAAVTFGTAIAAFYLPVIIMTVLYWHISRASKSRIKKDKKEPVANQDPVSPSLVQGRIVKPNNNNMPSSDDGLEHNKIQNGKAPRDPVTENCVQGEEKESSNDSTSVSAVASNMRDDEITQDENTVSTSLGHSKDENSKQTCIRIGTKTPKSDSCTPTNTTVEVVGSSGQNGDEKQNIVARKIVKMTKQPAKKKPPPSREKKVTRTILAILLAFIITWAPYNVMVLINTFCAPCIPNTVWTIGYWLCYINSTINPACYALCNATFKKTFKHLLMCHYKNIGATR
T3 sequence (Q93009 whole entry): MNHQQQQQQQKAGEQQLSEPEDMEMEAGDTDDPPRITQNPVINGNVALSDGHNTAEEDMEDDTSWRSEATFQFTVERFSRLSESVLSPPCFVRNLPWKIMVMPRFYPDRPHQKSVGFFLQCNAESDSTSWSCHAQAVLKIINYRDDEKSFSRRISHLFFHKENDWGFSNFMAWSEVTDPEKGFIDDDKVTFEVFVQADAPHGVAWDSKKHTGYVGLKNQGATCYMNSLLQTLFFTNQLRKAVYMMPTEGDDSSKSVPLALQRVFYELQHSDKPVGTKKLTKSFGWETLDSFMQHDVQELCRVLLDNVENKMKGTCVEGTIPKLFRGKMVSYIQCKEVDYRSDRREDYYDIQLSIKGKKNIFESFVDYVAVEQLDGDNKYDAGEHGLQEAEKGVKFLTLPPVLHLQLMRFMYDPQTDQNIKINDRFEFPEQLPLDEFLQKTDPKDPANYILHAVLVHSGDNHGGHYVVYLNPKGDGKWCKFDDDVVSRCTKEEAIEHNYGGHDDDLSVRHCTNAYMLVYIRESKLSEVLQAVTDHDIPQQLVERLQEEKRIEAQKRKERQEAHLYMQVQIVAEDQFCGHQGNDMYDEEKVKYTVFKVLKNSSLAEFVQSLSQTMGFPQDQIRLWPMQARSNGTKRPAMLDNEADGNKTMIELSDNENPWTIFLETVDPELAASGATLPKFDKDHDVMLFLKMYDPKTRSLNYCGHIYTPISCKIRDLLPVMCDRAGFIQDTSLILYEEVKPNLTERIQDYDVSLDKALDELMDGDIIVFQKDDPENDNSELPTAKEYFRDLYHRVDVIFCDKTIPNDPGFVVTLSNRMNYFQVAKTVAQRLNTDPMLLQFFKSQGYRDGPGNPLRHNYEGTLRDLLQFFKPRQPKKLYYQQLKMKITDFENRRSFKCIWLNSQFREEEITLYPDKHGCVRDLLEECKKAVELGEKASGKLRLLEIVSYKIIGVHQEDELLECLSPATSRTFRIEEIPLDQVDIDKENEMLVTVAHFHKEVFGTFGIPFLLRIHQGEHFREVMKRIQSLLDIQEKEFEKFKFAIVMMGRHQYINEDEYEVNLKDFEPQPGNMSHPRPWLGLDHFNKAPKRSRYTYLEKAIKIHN
Dopamine D1, sequence (P21728 whole entry): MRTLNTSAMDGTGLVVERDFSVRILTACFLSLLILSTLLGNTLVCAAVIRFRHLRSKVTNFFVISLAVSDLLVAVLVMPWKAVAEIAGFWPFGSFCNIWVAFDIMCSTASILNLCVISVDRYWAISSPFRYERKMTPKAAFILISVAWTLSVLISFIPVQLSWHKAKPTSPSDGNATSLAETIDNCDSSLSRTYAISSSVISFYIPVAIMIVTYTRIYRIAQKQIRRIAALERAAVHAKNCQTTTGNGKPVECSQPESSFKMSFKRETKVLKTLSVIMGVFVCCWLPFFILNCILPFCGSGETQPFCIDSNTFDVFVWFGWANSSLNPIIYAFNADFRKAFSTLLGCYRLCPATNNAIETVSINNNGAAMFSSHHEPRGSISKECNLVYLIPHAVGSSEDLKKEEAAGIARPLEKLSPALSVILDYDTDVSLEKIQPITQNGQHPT

- ΔTm at 100 µM (USP2 [1]): 0 °C
- ΔTm at 100 µM (USP21 [2]): 4.9 °C
- IC50 (USP21 [4]): 11.8 µM
- IC50 (USP2 [5]): > 25 µM
- ΔTm at 100 µM (USP7): 0 °C
- chromatographic logD (log D measurement (HPLC)): 2.3
- Kd (USP21 [6]): 7.87 µM
- IC50 (USP21 [7]): > 22.5 µM
- IC50 (USP21 [8]): > 22.5 µM
SMILES: CC(NC(=O)C1CCCC1)C(=O)Nc1nnc(Cc2ccc([N+](=O)[O-])cc2)s1 (stereo not shown) [Compound 1, CC(NC(=O)C1CCCC1)C(=O)Nc2nnc(Cc3ccc(cc3)[N+](=O)[O-])s2]
- inhibition of other tested DUB targets besides USP21 [3]: ≤ 50%

SMILES: CC(C)C[C@H](NC(=O)C1(C(F)(F)F)CCCCC1)C(=O)Nc1nnc(Cc2ccc(C#N)cc2)s1 [Compound 22, CC(C)C[C@H](NC(=O)C1(CCCCC1)C(F)(F)F)C(=O)Nc2nnc(Cc3ccc(cc3)C#N)s2]
- inhibition at 10 µM (Dopamine D1): 2%
- inhibition at 10 µM (Dopamine D2L): 17%
- inhibition at 10 µM (Opiate κ (OP2, KOP)): 12%
- IC50 [9]: 6.87 µM
- inhibition at 10 µM [9]: 75%
- inhibition at 0.1 µM ([9]; IC50 determination, 0.1 µM): 18%
- inhibition at 0.3 µM ([9]; IC50 determination, 0.3 µM): 4%
- inhibition at 1 µM ([9]; IC50 determination, 1 µM): 19%
- inhibition at 3 µM ([9]; IC50 determination, 3 µM): 8%
- inhibition at 10 µM ([9]; IC50 determination): 76%
- inhibition at 30 µM ([9]; IC50 determination, 30 µM): 78%
- inhibition at 10 µM (Adrenergic α2C): 12%
- inhibition at 10 µM (Adrenergic α2B): 1%
- inhibition at 10 µM (Dopamine D2S): 25%
- inhibition at 10 µM (Cannabinoid CB2): 4%
- inhibition at 10 µM (Adrenergic α1A): 13%
- inhibition at 10 µM [10]: 2%
- inhibition at 10 µM (Cannabinoid CB1): 3%
- inhibition at 10 µM [11]: 5%
- inhibition at 10 µM (Dopamine D3): 2%
- inhibition at 10 µM [12]: 14%
- inhibition at 10 µM (Muscarinic M4): -8%
- inhibition at 10 µM (Muscarinic M3): 4%
- inhibition at 10 µM [13]: -1%
- inhibition at 10 µM (Opiate δ1 (OP1, DOP)): 5%
- inhibition at 10 µM [14]: 2%
- inhibition at 10 µM (Fms(h)): 0.62%
- inhibition at 10 µM (Androgen (Testosterone)): 7%
- inhibition at 10 µM (Muscarinic M1): 36%
- inhibition at 10 µM (Opiate μ (OP3, MOP)): -3%
- inhibition at 10 µM (Adrenergic α2A): 13%
- inhibition at 10 µM (Muscarinic M2): 24%
- inhibition at 10 µM (PRP4(h)): -7.38%
